Calls of active or inactive are those of the source. The rule behind the calls is not given here.
Legend:
Escherichia coli [1] = assay: Bactericidal activity against Escherichia coli ATCC CRM-11229 assessed as reduction in bacterial growth incubated for 24 hrs by Mueller Hinton Agar based plate analysis; assay type: functional
Klebsiella pneumoniae [2] = assay: Antibiofilm activity against Klebsiella pneumoniae assessed as increase in dead cell proportion at 0.5 times of MIC incubated overnight by SYTO9/PI staining based fluorescence analysis; assay type: functional, organism-based
Staphylococcus aureus [3] = assay: Antibiofilm activity in methicillin-resistant Staphylococcus aureus assessed as biofilm clearance incubated for 24 hrs by Congo red dye based fluorescence analysis; assay type: functional, organism-based
[4] = […] activity against LPS-induced human PBMC assessed as increase in cell number by measuring rise in cell proliferation percentage at 12.5 uM measured after 12 hrs by lymphocyte proliferation assay (12 hrs incubated Rvb = 478.774%); assay type: functional
Rattus norvegicus [5] = species on record: Rattus norvegicus; assay: Induction of wound healing in surgically-induced Albino Wistar rat wound model inoculated with methicillin-resistant Staphylococcus aureus assessed as dense epithelial-tissue layers at 10 uM measured after 11 days by H&E staining based analysis; assay type: functional; conditions: time 11.0 day
Klebsiella pneumoniae [6] = assay: Antibiofilm activity against Klebsiella pneumoniae assessed as biofilm disintegration at 0.5 to 1 times of MIC incubated for 24 hrs by Congo red dye based fluorescence analysis; assay type: functional, organism-based
Pseudomonas aeruginosa [7] = assay: Antibiofilm activity against Pseudomonas aeruginosa assessed as biofilm eradication at 1 times of MIC incubated for 24 hrs by CV staining based analysis relative to control; assay type: functional
[8] = Cytotoxicity against human WI-38 cells assessed as cell viability at 25 uM incubated for 24 hrs by MTT assay relative to control; assay type: toxicity, cell-based; conditions: read-out: Activity
Staphylococcus aureus [9] = assay: Induction of morphological changes in methicillin-resistant Staphylococcus aureus at MIC concentration incubated for 6 hrs by SEM analysis; assay type: functional, organism-based
Staphylococcus aureus [10] = assay: Antibiofilm activity against methicillin-resistant Staphylococcus aureus assessed as increase in dead cell proportion at MIC incubated overnight by SYTO9/PI staining based fluorescence analysis; assay type: functional, organism-based
Staphylococcus aureus [11] = assay: Induction of morphological changes in methicillin-resistant Staphylococcus aureus at MIC concentration incubated for 60 mins by SEM analysis; assay type: functional, organism-based
Klebsiella pneumoniae [12] = assay: Induction of morphological changes in carbapenem resistant Klebsiella pneumoniae ATCC BAA-1705 at MIC concentration incubated for 60 mins by SEM analysis; assay type: functional, organism-based
Escherichia coli [13] = assay: Induction of morphological changes in Escherichia coli assessed as decrease in legible cells at MIC concentration incubated for 6 hrs by AFM analysis; assay type: functional, organism-based
Pseudomonas aeruginosa [14] = assay: Induction of morphological changes in Pseudomonas aeruginosa at MIC concentration incubated for 6 hrs by SEM analysis; assay type: functional, organism-based
Klebsiella pneumoniae [15] = assay: Antibiofilm activity against preformed biofilm in Klebsiella pneumoniae assessed as decrease in metabolic activity at MIC incubated overnight by MTT assay; assay type: functional, organism-based
[16] = Induction of wound healing in surgically-induced Albino Wistar rat wound model inoculated with methicillin-resistant Staphylococcus aureus assessed as decrease in mean open wound percentage at 10 uM measured after 11 days by photographic analysis (reference value: 32.25%); assay type: functional; set-up: scale not given: the % may be the effect or the level left; conditions: time 11 day
Pseudomonas aeruginosa [17] = assay: Induction of morphological changes in Pseudomonas aeruginosa assessed as membrane damage at MIC concentration incubated for 60 mins by SEM analysis; assay type: functional, organism-based
Escherichia coli [18] = assay: Induction of morphological changes in Escherichia coli assessed as membrane damage at MIC concentration incubated for 60 mins by SEM analysis; assay type: functional, organism-based
Pseudomonas aeruginosa [19] = assay: Antibiofilm activity against Pseudomonas aeruginosa assessed as biofilm eradication at 0.5 times of MIC incubated for 24 hrs by CV staining based analysis relative to control; assay type: functional
Pseudomonas aeruginosa [20] = assay: Antibiofilm activity against Pseudomonas aeruginosa in the presence of Cl-; assay type: functional, organism-based
Pseudomonas aeruginosa [21] = assay: Antibiofilm activity against Pseudomonas aeruginosa assessed as clearance of preformed biofilm at 1 times of MIC incubated for 24 hrs by CV staining based analysis relative to control; assay type: functional
Pseudomonas aeruginosa [22] = assay: Antibacterial activity against Pseudomonas aeruginosa assessed as inhibition of bacterial growth at 1.25 to 40 uM incubated for 8 hrs by microtiter plate reader analysis; assay type: functional, organism-based; conditions: dose 1.25-40 µM
Pseudomonas aeruginosa [23] = assay: Antibacterial activity against patient-derived Pseudomonas aeruginosa assessed as inhibition of bacterial growth at 25 to 100 uM incubated overnight by spotting assay; assay type: functional, organism-based; conditions: dose 25-100 µM
Cell membrane [24] = assay: Induction of inner membrane permeabilization in Pseudomonas aeruginosa assessed as increase in fluorescence at 0.5 to 1 times of MIC incubated for 60 mins by PI staining based fluorescence analysis; assay type: subcellular
Klebsiella pneumoniae [25] = assay: Antibiofilm activity against Klebsiella pneumoniae in the presence of Na+; assay type: functional, organism-based
Staphylococcus aureus [26] = assay: Induction of morphological changes in methicillin-resistant Staphylococcus aureus assessed as abnormal cell shrinkage at MIC concentration incubated for 60 mins by SEM analysis; assay type: functional, organism-based
Cell membrane [27] = assay: Induction of cytoplasmic membrane depolarization in Klebsiella pneumoniae assessed as increase in fluorescence intensity at 0.5 to 1 times of MIC incubated for 22 mins by DiSC3-5 dye based fluorescence method; assay type: subcellular
Staphylococcus aureus [28] = assay: Antibacterial activity against patient-derived methicillin-resistant Staphylococcus aureus assessed as inhibition of bacterial growth at 25 to 100 uM incubated overnight by spotting assay; assay type: functional, organism-based; conditions: dose 25-100 µM
Klebsiella pneumoniae [29] = assay: Antibiofilm activity against Klebsiella pneumoniae assessed as biofilm clearance incubated for 24 hrs by Congo red dye based fluorescence analysis; assay type: functional, organism-based
Staphylococcus aureus [30] = assay: Induction of morphological changes in methicillin-resistant Staphylococcus aureus at MIC concentration incubated for 6 hrs by AFM analysis; assay type: functional, organism-based
Pseudomonas aeruginosa [31] = assay: Induction of morphological changes in Pseudomonas aeruginosa assessed as inhibition of cell division by measuring filamented cells at MIC concentration incubated for 60 mins by SEM analysis; assay type: functional, organism-based
NMDF = assay: Induction of cell migration in NMDF cells at 5 uM incubated for 24 hrs by wound healing scratch/mirgation assay; assay type: functional, cell-based; conditions: Mus musculus
Escherichia coli [32] = assay: Antibacterial activity against Escherichia coli assessed as cell division block by measuring bacterial filamentation at 0.5 to 1 times of MIC incubated for 30 mins by SYTO9/PI staining based fluorescence microscopic analysis; assay type: functional, organism-based
Staphylococcus aureus [33] = assay: Induction of morphological changes in methicillin-resistant Staphylococcus aureus assessed as cellular destruction at MIC concentration incubated for 6 hrs by AFM analysis; assay type: functional, organism-based
Pseudomonas aeruginosa [34] = assay: Induction of morphological changes in Pseudomonas aeruginosa at MIC concentration incubated for 6 hrs by AFM analysis; assay type: functional, organism-based
Rattus norvegicus [35] = species on record: Rattus norvegicus; assay: Induction of wound healing in surgically-induced Albino Wistar rat wound model inoculated with methicillin-resistant Staphylococcus aureus assessed as reduction in inflammatory cell infiltration at 10 uM measured after 11 days by H&E staining based analysis; assay type: functional; conditions: time 11.0 day
Klebsiella pneumoniae [36] = assay: Antibiofilm activity against Klebsiella pneumoniae assessed as clearance of preformed biofilm at 0.5 times of MIC incubated for 24 hrs by CV staining based analysis relative to control; assay type: functional
Cell membrane [37] = assay: Induction of outer membrane permeabilization in Klebsiella pneumoniae at 0.5 to 1 times of MIC incubated for 5 to 20 mins by fluorescence based NPN uptake assay; assay type: subcellular; conditions: time 5-20 min
Klebsiella pneumoniae [38] = assay: Induction of morphological changes in carbapenem resistant Klebsiella pneumoniae ATCC BAA-1705 assessed as inhibition of cell division by measuring elongated cells at MIC concentration incubated for 60 mins by SEM analysis; assay type: functional, organism-based
Escherichia coli [39] = assay: Antibiofilm activity against Escherichia coli in the presence of Na+; assay type: functional, organism-based

## H-FLPIIKWVKKFFWRWR-OH
Escherichia coli [1]
  MBC: 4.5 µM
Klebsiella pneumoniae [2]
  Activity: inactive
Staphylococcus aureus [3]
  Activity: Dose-Dependent Effect
[4]
  Activity: 52.357%
Rattus norvegicus [5]
  Activity: Active
Klebsiella pneumoniae [6]
  Activity: Active
Pseudomonas aeruginosa [7]
  Activity: <=72.73%
[8]
  viability at 24 h, 25 µM: 88.3%
Staphylococcus aureus [9]
  Activity: Active
Staphylococcus aureus [10]
  Activity: Active
Staphylococcus aureus [11]
  Activity: Active
Klebsiella pneumoniae [12]
  Activity: Active
Escherichia coli [13]
  Activity: Active
Pseudomonas aeruginosa [14]
  Activity: Active
Klebsiella pneumoniae [15]
  Activity: Active
[16]
  Activity: 17.22%
Pseudomonas aeruginosa [17]
  Activity: Active
Escherichia coli [18]
  Activity: Active
Pseudomonas aeruginosa [19]
  Activity: ~50%
Pseudomonas aeruginosa [20]
  Activity: Active
Pseudomonas aeruginosa [21]
  Activity: ~56%
Pseudomonas aeruginosa [22]
  Activity: Active
Pseudomonas aeruginosa [23]
  Activity: Active
Cell membrane [24]
  Activity: Active
Klebsiella pneumoniae [25]
  Activity: Active
Staphylococcus aureus [26]
  Activity: Active
Cell membrane [27]
  Activity: Active
Staphylococcus aureus [28]
  Activity: Active
Klebsiella pneumoniae [29]
  Activity: Dose-Dependent Effect
Staphylococcus aureus [30]
  Activity: Active
Pseudomonas aeruginosa [31]
  Activity: Active
NMDF
  Activity: inactive
Escherichia coli [32]
  Activity: Active
Staphylococcus aureus [33]
  Activity: Active
Pseudomonas aeruginosa [34]
  Activity: Active
Rattus norvegicus [35]
  Activity: Active
Klebsiella pneumoniae [36]
  Activity: ~52%
Cell membrane [37]
  Activity: Active
Klebsiella pneumoniae [38]
  Activity: Active
Escherichia coli [39]
  Activity: Active

— ChEMBL document CHEMBL5360649, “Potential Broad-Spectrum Antimicrobial, Wound Healing, and Disinfectant Cationic Peptide Crafted from Snake Venom” (J Med Chem, 2023)
